This assay deals with recombinant human SPR (Sepiapterin Reductase) (Homo sapiens (Human), UniProt P35270). Description: SPR inhibition biochemical assay with chromogenic (OD at 420 nm) and LC/MS (L-biopterin formation) read-out. Here is the method: The compounds described herein were screened for activity as inhibitors of Sepiapterin Reductase (SPR).
Bacteria were grown at 37° C., and expression of SPR protein was induced for 4 hours.
To screen for SPR inhibition, a biochemical assay based on LC/MS (and chromogenic) read-out has been developed. The LC/MS assay monitors the product formation (L-biopterin) and the chromogenic assay measures OD at 420 nm.
N-methoxyacetyl serotonin was used as a reference compound (positive control).
The exemplary assay protocol uses the following conditions: SPR (6 nM); L-Sepiapterin (50 μM); NADPH (100 μM); Na-Phosphate buffer, pH 6.5 (100 mM); 82 μL assay volume; 60 minutes incubation with compounds (0.5% final concentration in DMSO) at 37° C. in Greiner μClear® 384 well plates.
For example, the compounds of Table 1 were screened using this additional method in triplicate.

[1] abbreviates: LC/MS read-out, L-biopterin product formation, SPR 6 nM, L-Sepiapterin 50 μM, NADPH 100 μM, pH 6.5, 60 minutes at 37° C., read-out: IC50 LC/MS.
[2] abbreviates: chromogenic read-out, OD at 420 nm, SPR 6 nM, L-Sepiapterin 50 μM, NADPH 100 μM, pH 6.5, 60 minutes at 37° C., read-out: IC50 chromogenic.

Where two headings read alike, the source gives them in different places.

Sequence of recombinant human SPR (Sepiapterin Reductase) (P35270 whole entry): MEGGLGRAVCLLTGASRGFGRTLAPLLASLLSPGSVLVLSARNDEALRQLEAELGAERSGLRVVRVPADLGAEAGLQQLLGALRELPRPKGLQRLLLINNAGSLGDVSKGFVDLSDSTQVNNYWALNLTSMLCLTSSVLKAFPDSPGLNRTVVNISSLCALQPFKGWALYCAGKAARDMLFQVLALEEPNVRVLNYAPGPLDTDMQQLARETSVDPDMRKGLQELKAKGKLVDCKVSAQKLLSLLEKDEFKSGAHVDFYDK

As for `O=C(NCCc1c[nH]c2ccc(O)cc12)C1CC1` [(2)], the IC50 under setting [1] amounted to 340 nM and the IC50 under setting [2] stood at 360 nM.

Take `COCC(=O)NCCc1c[nH]c2ccc(F)cc12` [(16)]: the IC50 runs as follows: under setting [1], 2800 nM; under setting [2], 3400 nM.

For the compound `COCC(=O)NCCc1c[nH]c2ccc(O)cc12` [N-Methoxyacetyl-Serotonin, reference compound], the IC50 by setting is: under setting [1], 43 nM; under setting [2], 42 nM; (reference compound (positive control), read-out not specified, read-out: IC50 measured using the screening conditions) 20 to 40 nM.

Regarding `Oc1ccc2[nH]cc(CCNc3cccnc3)c2c1` [(12)], the IC50 was determined as 1600 nM under setting [1] and 2100 nM under setting [2].

On to `CCOCC(=O)NCCc1c[nH]c2ccc(O)cc12` [(3)], for which the IC50 under setting [1] was 2200 nM and the IC50 under setting [2] turned out to be 2800 nM.

With `COCC(=O)NCCc1cccc(O)c1` [(32)], the IC50 came to 69 nM under setting [1] and 64 nM under setting [2].

As for `COCC(=O)NCC(=O)c1c[nH]c2ccc(O)cc12` [(24)], the IC50 under setting [1] stood at 310 nM and the IC50 under setting [2] was found to be 310 nM.

As for `COCC(=O)NCCc1c[nH]c2ccc(S(C)(=O)=O)cc12` [(17)], the IC50 is, setting by setting: under setting [1], 3200 nM; under setting [2], 4500 nM.

For the compound `COCC(=O)NCCc1cn(C)c2ccc(O)cc12` [(21)], the IC50 reads like this: under setting [1], 86 nM; under setting [2], 84 nM.

As for `CC(C)C(=O)NCCc1c[nH]c2ccc(O)cc12` [(1)], the IC50 runs as follows: under setting [1], 330 nM; under setting [2], 400 nM.

For the origin of these results see patent publication US9169234B2, “Sepiapterin reductase inhibitors for the treatment of pain” (Children's Medical Center Corporation, priority 2009, dated 2015).
